Like-named read-outs stand apart in the source and are kept apart here.
Experiments:
MCF-7 = assay: NCI-60 one-dose SRB screen (Breast Cancer); format: cell-based; settings: Homo sapiens, MCF7, single dose 10 µM, 48 h, read-out: Growth inhibition percent (GI %)
HS 578T = assay: NCI-60 one-dose SRB screen (Breast Cancer); format: cell-based; settings: Homo sapiens, single dose 10 µM, 48 h, read-out: Growth inhibition percent (GI %)
MDA-MB-231/ATCC = assay: NCI-60 one-dose SRB screen (Breast Cancer); format: cell-based; settings: Homo sapiens, single dose 10 µM, 48 h, read-out: Growth inhibition percent (GI %)
BT-549 = assay: NCI-60 one-dose SRB screen (Breast Cancer); format: cell-based; settings: Homo sapiens, single dose 10 µM, 48 h, read-out: Growth inhibition percent (GI %)
T-47D = assay: NCI-60 one-dose SRB screen (Breast Cancer); format: cell-based; settings: Homo sapiens, T47D, single dose 10 µM, 48 h, read-out: Growth inhibition percent (GI %)
MDA-MB-468 = assay: NCI-60 one-dose SRB screen (Breast Cancer); format: cell-based; settings: Homo sapiens, single dose 10 µM, 48 h, read-out: Growth inhibition percent (GI %)
[1] = test system: MCF-7 breast cancer cell line; assay: Apoptotic assay, Annexin V-FITC/propidium iodide; format: cell-based, human
Description: S.1.4. Cell cycle analysis and Apoptotic assay
S.1.4.1. Cell cycle analysis […]
(§1) Briefly, cell lines were cultured and incubated with each of the tested compounds for 48 h. Then, the cells were collected by centrifugation and resuspended in 500 μl of 1X binding buffer. 5 μl of Annexin V-FITC was added and 5 μl of propidium iodide (PI […], optional.). The cells were incubated at room temperature for 5 min in the dark. Annexin V-FITC binding was analyzed by flow cytometry (Ex = 488 nm; Em = 530 nm) using FITC signal detector and PI staining was analyzed by the phycoerythrin emission signal detector.
S.1.4.2. Apoptotic assay: cell lines were cultured and incubated with each of the tested compounds for 48 h.
as §1, with “Then,” for “Briefly, cell lines were cultured and incubated with each of the tested compounds for 48 h. Then,”, “the” for “The”

HOP-92 = assay: NCI-60 one-dose SRB screen (Non-Small Cell Lung Cancer); format: cell-based; settings: Homo sapiens, single dose 10 µM, 48 h, read-out: Growth inhibition percent (GI %)
UO-31 = assay: NCI-60 one-dose SRB screen (Renal Cancer); format: cell-based; settings: Homo sapiens, single dose 10 µM, 48 h, read-out: Growth inhibition percent (GI %)
ACHN = assay: NCI-60 one-dose SRB screen (Renal Cancer); format: cell-based; settings: Homo sapiens, single dose 10 µM, 48 h, read-out: Growth inhibition percent (GI %)
TK-10 = assay: NCI-60 one-dose SRB screen (Renal Cancer); format: cell-based; settings: Homo sapiens, single dose 10 µM, 48 h, read-out: Growth inhibition percent (GI %)
RXF 393 = assay: NCI-60 one-dose SRB screen (Renal Cancer); format: cell-based; settings: Homo sapiens, single dose 10 µM, 48 h, read-out: Growth inhibition percent (GI %)
CAKI-1 = assay: NCI-60 one-dose SRB screen (Renal Cancer); format: cell-based; settings: Homo sapiens, single dose 10 µM, 48 h, read-out: Growth inhibition percent (GI %)
A498 = assay: NCI-60 one-dose SRB screen (Renal Cancer); format: cell-based; settings: Homo sapiens, single dose 10 µM, 48 h, read-out: Growth inhibition percent (GI %)
786-0 = assay: NCI-60 one-dose SRB screen (Renal Cancer); format: cell-based; settings: Homo sapiens, single dose 10 µM, 48 h, read-out: Growth inhibition percent (GI %)
SN12C = assay: NCI-60 one-dose SRB screen (Renal Cancer); format: cell-based; settings: Homo sapiens, single dose 10 µM, 48 h, read-out: Growth inhibition percent (GI %)
[2] = test system: MCF-7 breast cancer cell line; assay: Cell cycle analysis by flow cytometry; format: cell-based, human; settings: 24 h
PC-3 = assay: NCI-60 one-dose SRB screen (Prostate Cancer); format: cell-based; settings: Homo sapiens, single dose 10 µM, 48 h, read-out: Growth inhibition percent (GI %)
DU-145 = assay: NCI-60 one-dose SRB screen (Prostate Cancer); format: cell-based; settings: Homo sapiens, single dose 10 µM, 48 h, read-out: Growth inhibition percent (GI %)
[3] = test system: MCF-7 breast cancer cell line; assay: In vitro cytotoxicity, MTT assay; settings: Homo sapiens
Description: In vitro cytotoxic activity:
Firstly, cultures were delivered into sterile area then each vial was supplied with 3 mL of medium or balanced salt solution free from phenol red and serum. Cultures were subjected to incubation foe 2-4 g. After the incubation period, MTT solubilization solution was added to remove the produced formazan crystals. Spectrophotometric measurement of absorbance was carried out at 690 nm for the background which then subtracted from absorbance measured at 570 nm. Five different drug concentrations were used 100, 25, 6.3, 1.6 and 0.4 nM and measured in triplicate.
was determined using Annexin V-FITC Apoptosis Detection Kit (Bio Vision) according to the manufacturer’s procedures. Briefly, cell lines were cultured and incubated with each of the tested compounds for 48 h. Then, the cells were collected by centrifugation and resuspended in 500 μl of 1X binding buffer. 5 μl of Annexin V-FITC was added and 5 μl of propidium iodide (PI 50 mg/ml, optional.). The cells were incubated at room temperature for
Then, the cells were collected by centrifugation and resuspended in 500 μl of 1X binding buffer. 5 μl of Annexin V-FITC was added and 5 μl of propidium iodide (PI 50 mg/ml, optional.). the cells were incubated at room temperature for 5 min in the dark.

[4] = test system: panel of 60 cancer cell lines; assay: NCI-60 one-dose SRB screen, range over the whole panel; format: cell-based; settings: Homo sapiens; single dose 10 µM, SRB assay, range over the tested cell lines; read-out: growth inhibition (GI %) range over the panels
Description: The National Cancer Institute (NCI) Developmental Therapeutic Program (www.dtp.nci.nih.gov) selected the 20 novel synthesized compounds 4a-e, 5a-e, 6a-c, 9a-e, 10 and 11 to test for their anticancer activity at a single dose of 10 µM using SRB assay. […] Supplementary Data S3; Table S1 presents the detailed screening results of the most promising compounds. The preliminary screening’s detailed results for the remaining compounds are elucidated in the (Supplementary Data S3; Table S2).
The guidelines of the Drug Evaluation Branch’s protocol at the NCI in Bethesda served as the basis for the in vitro anticancer screening assays. at one dose 10 µM against a panel of 60 cancer cell lines. The human tumor cell lines used belonged to nine panels: leukemia, melanoma, lung, colon, CNS, ovarian, renal, prostate and breast cancers using the sulforhodamine B (SRB) assay in a 48 h drug exposure protocol.

[5] = MCF-7, hypoxic conditions, at IC50 (3.50 µM)
[6] = MCF-7, normal conditions, at IC50 (5.21 µM)

| Compound | inhibition at 10 µM (MCF-7) [%] | inhibition at 10 µM (HS 578T) [%] | inhibition at 10 µM (MDA-MB-231/ATCC) [%] | inhibition at 10 µM (BT-549) [%] | inhibition at 10 µM (T-47D) [%] | inhibition at 10 µM (MDA-MB-468) [%] | inhibition at 10 µM (HOP-92) [%] | inhibition at 10 µM (UO-31) [%] | inhibition at 10 µM (ACHN) [%] | inhibition at 10 µM (TK-10) [%] | inhibition at 10 µM (RXF 393) [%] | inhibition at 10 µM (CAKI-1) [%] | inhibition at 10 µM (A498) [%] | inhibition at 10 µM (786-0) [%] | inhibition at 10 µM (SN12C) [%] | inhibition at 10 µM (PC-3) [%] | inhibition at 10 µM (DU-145) [%] | also measured |
| --- | --- | --- | --- | --- | --- | --- | --- | --- | --- | --- | --- | --- | --- | --- | --- | --- | --- | --- |
| CCOC(=O)c1ccc(NC(=O)COC(=O)c2cn(-c3ccc(S(N)(=O)=O)cc3)nc2-c2ccc(C)cc2)cc1 [Compound 5b, 2-[(4-(Ethoxycarbonyl)phenyl)amino]-2-oxoethyl 1-(4-sulfamoylphenyl)-3-(p-tolyl)-1H-pyrazole-4-carboxylate] | 78.6 | 57.9 | 27.8 | 39.7 | 53.5 | 52.5 | 56.3 | 58.8 | 52.8 | 14 | 73.2 | 70.2 | 31.7 | 66 | 38.2 | 68.7 | 28.9 | Apoptosis % Early % ([1]; MCF-7, hypoxic conditions): 21.41%; Apoptosis % Late % ([1]; MCF-7, hypoxic conditions): 11.49%; Apoptosis % Total % ([1]; MCF-7, hypoxic conditions): 37.31%; Necrosis % ([1]; MCF-7, hypoxic conditions): 4.41%; Apoptosis % Early % ([1]; MCF-7, normal conditions): 13.52%; Apoptosis % Late % ([1]; MCF-7, normal conditions): 25.05%; Necrosis % ([1]; MCF-7, normal conditions): 3.76%; DNA content % G0-G1 [2, 5]: 48.13%; DNA content % G2/M [2, 5]: 32.28%; DNA content % S [2, 5]: 19.59%; DNA content % G0-G1 [2, 6]: 67.39%; DNA content % G2/M [2, 6]: 3.05%; DNA content % S [2, 6]: 29.56%; IC50 ([3]; MCF7, read-out: IC50 (µM) ± SD cytotoxic activity, MCF-7, MTT, normal conditions): 5.21 ± 0.21 µM; IC50 ([3]; MCF7, read-out: IC50 (µM) ± SD cytotoxic activity, MCF-7, MTT, under hypoxia): 3.5 ± 0.14 µM |
| NS(=O)(=O)c1ccc(NC(=O)COC(=O)c2cn(-c3ccc(S(N)(=O)=O)cc3)nc2-c2ccc(Br)cc2)cc1 [Compound 4d, 2-Oxo-2-[(4-sulfamoylphenyl)amino] ethyl 3-(4-bromophenyl)-1-(4-sulfamoylphenyl)-1H-pyrazole-4-carboxylate] | 56.4 | 36.9 | 33.9 | 79.9 | 52.3 | 66.5 | 49.6 | 23.2 | < 5 | < 5 | < 5 | 63.5 | 16.8 | 86.5 | 11.8 | 23.1 | < 5 | inhibition at 10 µM [4]: 8.46 to 86.5% |
